Source: patent US20210177952A1, “METHOD AND COMPOSITION FOR STIMULATING IMMUNE RESPONSE” (BeyondSpring Pharmaceuticals, Inc., priority 2018, published 2021)

Legend:
[1] = tested on: ovalbumin IgG1; assay: Serum anti-ovalbumin IgG1 ELISA after OVA/CFA immunization of mice; assay type: in vivo, Mouse, C57BL6; conditions: for anti-OVA IgG1 concentrations in serum: 7.5 and 10 mg/kg IP BID for a single day, 3, 6, 14 or 28 days after immunization, Day 30 and Day 62 samples
Protocol: A study was performed to evaluate the effect of plinabulin on boosting B-cell response to immunization. Samples were prepared using an emulsion of complete Freund's adjuvant (CFA) with the foreign protein ovalbumin (OVA), each with varying concentrations of plinabulin (plinabulin doses range from 0.01 mg to 30 mg), and the control was prepared with no plinabulin added. Normal healthy mice were immunized by subcutaneous injection of the CFA+OVA emulsion +/−plinabulin, and/or intraperitoneal injection of ALUM+OVA adjuvant +/−plinabulin (n=5 mice per plinabulin dose group). At different time points as discussed below in this Example, the animals were bled to collect serum for evaluating the concentration of IgG that binds OVA in the serum.
DOSE PREPARATION OF OVALBUMIN EMULSIONS IN COMPLETE FREUND'S ADJUVANT: EndoFit™ Ovalbumin Kit (InvivoGen, USA), containing 10 mg powder in one glass vial and 10 mL of sterile endotoxin-free physiological water in one glass vial, and CFA 10 mL in one glass vial were received in good condition and stored at 2-8° C. until Day 1. The sterile endotoxin-free saline solution was allowed to reach room temperature before use. Inside a BSL2 cabinet, 5 mL sterile water was added into the vial containing 10 mg of OVA and gently agitated to obtain a homogenous 2 mg/mL OVA solution. To 2.5 mL of CFA, 2.5 mL of OVA solution was added; and the mixture was emulsified by vigorously mixing into two connected 10 mL locking syringes to prepare a 1 mg/mL OVA/CFA emulsion. The emulsification was kept chilled by placing the apparatus into crushed ice for 5 minutes, then mixing and cooling was repeated an additional two times. Stability of the emulsion was tested by adding a drop into water to verify that the emulsion would not dissipate. The emulsion was transferred into five 1 mL syringes for injection and kept cool on crushed ice until immunization. The emulsification processes were repeated with an additional 2.5 mL of OVA solution and 2.5 mL of CFA during immunization of animals to use within 4 hours of preparation.
DOSE PREPARATION OF TEST ARTICLES: Plinabulin solution (Plin-A) at a 0.75 mg/mL was prepared on each day of dosing. Plinabulin powder (3 mg) was weighed into a separate light protected amber vial at room temperature. Using a micropipette, 284 μL of Tween-80 was added to the amber vial and vortex for 1 minute. 1,020 μL of propylene glycol was added to the amber vial and vortexed for 15 minutes, then sonicated in a water bath for 30 minutes. Finally, 2,696 μL of 5% dextrose in water was added to the solution and vortexed for 3 minutes to achieve 4 mL of a 0.75 mg/mL plinabulin solution. Plinabulin solution (Plin-B) at a 1.0 mg/mL was prepared on each day of dosing. Plinabulin powder (3 mg) was weighed into a separate light protected amber vial at room temperature. Using a micropipette, 213 μL of Tween-80 was added to the amber vial and vortex for 1 minute. 765 μL of propylene glycol was added to the amber vial and vortex for 15 minutes, then sonicated in a water bath for 30 minutes. Finally, 2,022 μL of 5% dextrose in water was added to the solution and vortexed for 3 minutes to achieve 3 mL of a 1.0 mg/mL plinabulin solution.
ANTI-OVALBUMIN ASSAY: Mouse anti-OVA IgG1 ELISA kits (Cayman Chemical, USA) were purchased to perform the assay. Serum samples from Day 30 were assayed in 1-to-2,000, 1-to-6,000 and 1-to-20,000 dilution. Serum samples from Day 62 were assayed in 1-to-2,000 and 1-to-20,000 dilution. […]

[2] = assay type: in vivo, Mouse, C57BL6; conditions: 15 mg/kg IP BID, subgroup I group 3, three animals
Protocol: Detailed Clinical Observations: Scheduled detailed clinical observations were not conducted on this study. Unscheduled clinical observations were made on mice flagged by trained personnel during daily moribundity/morbidity checks for any reason.
The remaining subgroups II-V, group 3 animals were dosed at 10 mg/kg (indicated as “*” in Tables 3-4 above). The experimental observations described below in this Example were focused on the lower dose (10-mg/kg) mice.

[3] = human; cited from earlier work

**Q.** With `CC(C)(C)c1[nH]cnc1/C=c1\[nH]c(=O)/c(=C/c2ccccc2)[nH]c1=O` [Plinabulin, (3Z,6Z)-3-Benzylidene-6-{[5-(2-methyl-2-propanyl)-1H-imidazol-4-yl]methylene}-2,5-piperazinedione] as the compound, how does the “anti-OVA IgG1 concentrations in serum” value [1] read?
**A.** inhibitory effects on anti-OVA in 4 out of 5 subgroups

**Q.** And the “anti-OVA IgG1 concentrations in serum” value ([1]; listed as plinabulin)?
**A.** significantly reduced, or tended to be reduced

**Q.** And the “concentration of anti-OVA IgG in serum versus immunization without plinabulin” value ([1]; mice immunized with CFA+OVA or ALUM+OVA +/- plinabulin)?
**A.** higher concentrations of anti-OVA IgG

**Q.** What about the “OVA IgG1 production in serum on Day 62” value ([1]; subgroup 1: 7.5 mg/kg IP BID, 1 hour after immunization, Day 62) of the same compound?
**A.** significantly increased OVA IgG1 production

**Q.** What about the “production of OVA IgG1 in serum on Day 30” value ([1]; subgroup 1: plinabulin IP BID 3 hours apart, 1 hour after OVA/CFA immunization, Day 30) of the same compound?
**A.** dose-dependently increased the production of OVA IgG1 on Day 30 without reaching statistical significance

**Q.** What about the “clinical observations within 1 day following test article administration” value [2] of the same compound?
**A.** decreased activity, irregular breathing, dehydration, and body cold to touch

**Q.** What about the plasma elimination half-life [3] of the same compound?
**A.** 5 to 6 h
